Results published in patent publication US20160279190A1, “MODULATION OF AXON DEGENERATION” (GENENTECH, INC., priority 2008, published 2016).
Entries after “also recorded” stand apart in the source; their conditions may differ. Starred links: 1 amine or outer side, 2 acyl side, 3 side chain; linkers in the order of their positions; H or OH if unused. Positions of bridges follow the written chain, without caps; N, C: chain ends. Non-standard residues stand in square brackets, D forms with d. Residues, ends and D or L forms follow the SMILES beside them. Chains are numbered I, II in the order given. Actinocin(9to1) = Cc1c2oc3c(C)ccc(C(=O)[*:1])c3nc-2c(C(=O)[*:2])c(N)c1=O; NMeV = CN[C@H](C(=O)O)C(C)C; Sar = CNCC(=O)O

Assays:
DRGs [1] = assay: Campenot chamber local axon degeneration, anti-NGF in axon compartment; format: cell-based, mouse; conditions: for Axon Compartment (axon protected when inhibitor is in axon compartment) / Cell Body Compartment (axon protected when inhibitor is in cell body compartment): anti-NGF in axon compartment, 28 hours
Description: Teflon dividers (Tyler Research) were cleaned by washing in water and wiping them clean of any residual grease. Dividers were then soaked in Nochromix (Godax Laboratories)/sulfuric acid overnight, rinsed five times in distilled and autoclaved water (SQ water), boiled for 30 minutes, and then air-dried before use.
Mouse laminin (5 μg/ml in sterile filtered water; Invitrogen) was added to PDL coated 35 mm dishes (BD Biosciences) and they were incubated for 1 hour at 37° C., followed by two rinses in SQ water. The dishes were vacuum-dried and then air-dried in a laminar flow hood for 15 minutes. Prepared dishes were then scored with a pin rake (Tyler Research). […] High vacuum grease (VWR) was added to each Teflon divider under a dissection scope. The laminin coated PDL dishes were inverted and dropped onto the Teflon divider, with additional pressure added by use of a toothpick in the non-track-containing regions. Dishes were incubated for 1 hour at 37° C. Five hundred microliters of NBM+MC (50 ng/ml NGF) solution was added to each of the side compartments, and a grease barrier was added in front of the center cell slot.
Free E13.5 spinal cords were dissected from mouse embryos and placed into NBM+MC (25 ng/ml NGF) solution. DRGs were detached from the spinal cord with a tungsten needle. An NBM+MC-lubricated P200 pipette was used to move DRGs into a 1.5 ml tube. DRGs were pelleted with a tabletop centrifuge for 30 seconds. The supernate was discarded and 0.05% Trypsin/EDTA (cold) was added. The pellet was resolubilized with a pipette and incubated at 37° C. for 15 minutes with constant agitation (650 RPM). The sample was again centrifuged and the supernate discarded. The pellet was resuspended in warm NBM+MC (50 ng/ml NGF) solution and triturated with a flamed glass pipette 20 times, followed by trituration with a fire-bored glass pipette another 20 times. The samples were again centrifuged and the resulting pellets were resuspended in 0.5 ml NBM+MC (50 ng/ml NGF) solution. The cells were diluted to a final concentration of 2.5×10^6 cells/ml. The cell suspensions were loaded into a 1 ml syringe with a 22 gauge needle. The center slot of the Campenot divider was filled using the syringe (to a volume of at least 50 μl). The Campenot chamber was incubated overnight at 37° C. 2.5 ml NGF+MC (50 ng/ml NGF) solution was added to the center compartment and the grease gate was removed. The outer medium (cell body compartment) was replaced after three days with 2.5 ml NBM+MC medium (with 25 ng/ml NGF). After five days in culture, one distal compartment was washed three times with warmed NBM+MC (no NGF) solution. After the third wash, 500 μl NBM+MC (no NGF) solution was added to the axon compartment in combination with either 0.5% DMSO or an inhibitor. The cell body compartment was replaced with 2.5 ml NBM+MC medium (with 25 ng/ml NGF) containing either 0.5% DMSO or inhibitor.
After 28 hours of anti-NGF antibody treatment, 8% PFA/30% sucrose solution (see above) was added directly to the culture medium at a 1:1 dilution and incubated for 30 minutes. The Teflon divider was removed after the first 15 minutes of addition. The system was washed once with 2.5 ml PBS prior to immunostaining. Neurons were blocked in 5% BSA/0.2% triton in PBS for 30 minutes. The primary antibody Tuj1 (Covance) was added to a final dilution of 1:1000 in PBS containing 2% BSA and incubated overnight at 4° C. The dish was washed once with PBS. […] The dish was washed twice with PBS, and a 22×22 mm coverslip (VWR) was added with 350 μl of fluoromount G (Electron Microscopy Sciences). The neurons were visualized by use of a fluorescence microscope.
As described above, E13.5 DRGs were isolated and grown for 5 days in a Campenot chamber.

DRGs [2] = assay: anti-NGF antibody (NGF withdrawal) screen for inhibitors of neuron or axon degeneration; format: cell-based, mouse; conditions: inhibitor 100 μM or 10 μM added 1 hour before 25 μg/ml anti-NGF antibodies; 20 hours; actin staining
Description: The anti-NGF antibody model described above in Example 1 was used in a screen for inhibitors of neuron or axon degeneration. A library of more than 400 small molecules (Tocris Bioscience) was tested to see which, if any, modulate degeneration observed in the presence of anti-NGF antibodies.
Mouse E13.5 embryos were dissected and placed into L15 medium (Invitrogen). The spinal cord was dissected out from the embryos with DRGs attached. The spinal cords with DRGs attached were placed into L15 medium+5% goat serum (Gibco) on ice. The DRGs were removed using a tungsten needle and the remaining spinal cord was disposed of. Eight well slides were filled with N3-F12 solution (23 ml Ham's F12, 1 ml N3 supplement, and 1 ml 1 M glucose) to which was added 25 ng/ml NGF (Roche). (N3 supplement was made by dilution of N3 100× concentrate, which was made by mixing the following ingredients, in the following order: 5.0 ml Hank's buffered saline solution (HBSS; Ca, Mg free; Invitrogen), 1.0 ml bovine serum albumin (10 mg/ml in HBSS=150 μm), 2.0 ml Transferrin (T1147-1G, human, 100 mg/ml in HBSS=1.1 mM), 1.0 ml sodium selenite (S9133-1MG, 0.01 mg/ml in HBSS=58 μM), 0.4 ml putrescine dihydrochloride (P5780-5G, 80 mg/ml in HBSS=500 mM), 0.2 ml progesterone (P8783-5G, 0.125 mg/ml in absolute ethanol=400 μM), 0.02 ml corticosterone (C2505-500MG, 2 mg/ml in absolute ethanol=5.8 mM), 0.1 ml triiodothyonine, sodium salt (T6397-100MG, 0.2 mg/ml in 0.01 N NaOH=300 μM), 0.4 ml insulin (16634-250MG, bovine pancreas, 241 U/mg, 25 mg/ml in 20 mM HCl=4.4 mM), for a total volume of 10.02 ml (can be stored at −20° C.). An N3 supplement stock was made by combining the following: 10 ml Pen/Strep (100×, Gibco), 10 ml glutamine (200 mM, Gibco), 10 ml MEM vitamins (100×, Gibco), 10 ml N3 concentrate (100×, see above), for a total volume of 40 ml. The mixture was filter sterilized using a 0.22 μm filter, and 1-2 ml aliquots were stored at −20° C.).
The DRGs were sectioned into halves, and placed in the center of each well of an 8-chamber slide (BD Biocoat PDL/Laminin coated glass, Becton Dickinson). The DRGs were permitted to attach to the slide at room temperature for 5-10 minutes, followed by an overnight incubation at 37° C. Inhibitors of choice were added at a concentration of 100 μM (top row) or 10 μM (bottom row) 1 hour before adding anti-NGF antibodies. The anti-NGF antibodies were added to the right half of the slide (4 wells) at a concentration of 25 μg/ml. After incubation for 20 hours at 37° C., the slides were fixed with 30% sucrose/8% paraformaldehyde (PFA) by adding 250 μl of the fix solution directly to the 250 μl of culture medium. (To make the 30% sucrose/8% PFA solution, the following ingredients were added to a 600 ml beaker including a stir bar: 250 ml 16% PFA (cat#15710-S, Electron Microscopy Sciences), 50 ml 10×PBS pH 7.4, and 150 g sucrose. The solution was mixed under low heat until dissolved, and then 6-8 drops of 1 M NaOH were added to bring the pH to 7.4. The volume was then brought to 500 ml with water in a graduated cylinder. The solution was mixed well, placed in aliquots, and frozen.) The slides were fixed for 30 minutes, followed by washing once with PBS. All cells were labeled with an actin stain (Alexa-568 conjugated phalloidin; 1:40; Invitrogen), a membrane dye (DiO; 1:200; Invitrogen), and a DNA stain (Hoechst 33258; 1:10,000; Invitrogen) in 0.1% Triton and 1% goat serum for 2 hours at room temperature. […]

DRG explants = assay: pan-JNK inhibitors in DRG explants, NGF withdrawal assay; format: cell-based; conditions: anti-NGF plus inhibitor (FIG. 46)
Description: If DLK inhibition protects neurons from degeneration through limiting the phosphorylation of JNK2 and JNK3, then inhibitors of JNK2 or JNK3 should also protect neurons from cell death and axon degeneration. The ability of direct JNK inhibition to protect neurons against NGF withdrawal-dependent degeneration was also assessed. DRG explants were treated with anti-NGF and either pan-JNK inhibitor JNKV or JNKVIII, prior to assessment in the NGF withdrawal assay described above.

[3] = inhibitor 15 μM, listed as Act D

## COc1ccc(CNC(=O)Nc2ncc([N+](=O)[O-])s2)cc1 [AR-A014418]
DRGs [1]; inhibitor 20 μM
  Axon Compartment (axon protected when inhibitor is in axon compartment): No (1)
  Cell Body Compartment (axon protected when inhibitor is in cell body compartment): Yes (1)

## Cc1c2oc3c(C)ccc(C(=O)N[C@@H]4C(=O)N[C@H](C(C)C)C(=O)N5CCC[C@H]5C(=O)N(C)CC(=O)N(C)[C@@H](C(C)C)C(=O)O[C@@H]4C)c3nc-2c(C(=O)N[C@@H]2C(=O)N[C@H](C(C)C)C(=O)N3CCC[C@H]3C(=O)N(C)CC(=O)N(C)[C@@H](C(C)C)C(=O)O[C@@H]2C)c(N)c1=O [Actinomycin D] (I: T[dV]P[Sar][NMeV] / II: T[dV]P[Sar][NMeV]; ester I:1-I:C, II:1-II:C; linker I:N-II:N via Actinocin(9to1))
DRGs [1]; cell body inhibitors added to cell body compartment: 30 μM SB415, 15 μM Act D
  formation of varicosities in locally NGF-deprived axons: large number of axons with varicosities, as well as fragmented axons
DRGs [1]; inhibitor 15 μM
  Axon Compartment (axon protected when inhibitor is in axon compartment): No (4)
  Cell Body Compartment (axon protected when inhibitor is in cell body compartment): Yes (4)
DRGs [1]; [3]
  Axon Compartment (axon protected when inhibitor is in axon compartment): failed to prevent degeneration
  Cell Body Compartment (axon protected when inhibitor is in cell body compartment): did not degenerate; also recorded: protected from local degeneration

## OC(CN1CCNCC1)Cn1c2ccc(Br)cc2c2cc(Br)ccc21 (centres unmarked) [Bax Channel Blocker]
DRGs [2]
  Comments (observations on protection against neurodegeneration upon NGF withdrawal): Cell bodies detach

## C[C@@H]1C[C@@H]([C@H](O)CC2CC(=O)NC(=O)C2)C(=O)[C@@H](C)C1 [Cycloheximide]
DRGs [1]; inhibitor 5 μM
  Axon Compartment (axon protected when inhibitor is in axon compartment): No (2)
  Cell Body Compartment (axon protected when inhibitor is in cell body compartment): Yes (2)

## C=C[C@@]1(C)CC(=O)[C@]2(O)[C@@]3(C)[C@@H](O)CCC(C)(C)[C@@H]3[C@H](O)[C@H](OC(C)=O)[C@@]2(C)O1 [Forskolin]
DRGs [1]; inhibitor 3 μM
  Axon Compartment (axon protected when inhibitor is in axon compartment): Yes (2)
  Cell Body Compartment (axon protected when inhibitor is in cell body compartment): Yes (2)

## O=C1NC(=O)C(c2cn(CCCO)c3ncccc23)=C1c1cnccn1 [GSK3 inhibitor XI]
DRGs [1]; inhibitor 30 μM
  Axon Compartment (axon protected when inhibitor is in axon compartment): No (2)
  Cell Body Compartment (axon protected when inhibitor is in cell body compartment): Yes (2)

## CCOc1nc(NC(=O)Cc2cc(OC)ccc2OC)cc(N)c1C#N [JNKVIII]
DRG explants
  most protective concentration: 4 µM
  protection of DRG explants from NGF-dependent degeneration: able to protect DRG explants from NGF-dependent degeneration

## N#C/C(=C1/Nc2ccccc2S1)c1ccnc(NCCc2cccnc2)n1 [JNKV]
DRG explants
  most protective concentration: 5 µM
  protection of DRG explants from NGF-dependent degeneration: able to protect DRG explants from NGF-dependent degeneration

## C=C[C@@]1(C)CC(=O)[C@]2(O)[C@@]3(C)[C@@H](O)CCC(C)(C)[C@@H]3[C@H](OC(=O)CCN(C)C)[C@H](OC(C)=O)[C@@]2(C)O1 [NKH 477]
DRGs [2]
  Comments (observations on protection against neurodegeneration upon NGF withdrawal): Partial

## C[S+]([O-])c1ccc(-c2nc(-c3ccc(F)cc3)c(-c3ccncc3)[nH]2)cc1.Cl (centres unmarked) [SB 203580 HCI]
DRGs [2]
  Comments (observations on protection against neurodegeneration upon NGF withdrawal): Partial

## CC(NC(=O)/C(C#N)=C/c1ccc(O)c(O)c1)c1ccccc1 (centres unmarked) [Tyrphostin B44]
DRGs [2]
  Comments (observations on protection against neurodegeneration upon NGF withdrawal): Partial

## CCN(c1ccccc1)c1cc(NC)[n+](C)c(C)n1.[Cl-] [ZD7288]
DRGs [1]; inhibitor 5 μM
  Axon Compartment (axon protected when inhibitor is in axon compartment): No (3)
  Cell Body Compartment (axon protected when inhibitor is in cell body compartment): Yes (3)
